Test results taken from PubChem BioAssay AID651895 (Broad Institute, 2012).
Calls of active or inactive are those of the source.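 The calls were made as follows: active = IC50 under 100 times the reference toxin's IC50 in the same rat muscle cell viability test; inactive = the rest.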

Tested on: L-6 rat myoblast viability, Alamar blue, 72 h
Experiment: host muscle cell viability loss – plate reader, dry powder, counter-screen for T. cruzi inhibitor project, dose response (AID 651895)

C[C@@H]1CN([C@@H](C)CO)C(=O)c2cccc(NC(=O)c3ccncc3)c2O[C@H]1CN(C)Cc1ccc(Oc2ccccc2)cc1
IC50: 14.8 µM (inactive)
